Key:
[1] = test system: CMPK2 expression in BMDMs; assay: CMPK2 protein and mRNA expression in BMDMs; format: cell-based, mouse
Description: Cells were lysed in NP-40 buffer containing a protease inhibitor cocktail (Roche, 11836153001) and a phosphatase inhibitor cocktail (Sigma-Aldrich, P5726). Protein concentrations were quantified using a BCA Protein Assay Kit (Beyotime, 5000T P0011). Equal amounts of protein were separated by SDS-PAGE and transferred onto nitrocellulose membranes. The membranes were then incubated with antibodies against CMPK2, NLRP3, ASC, pro-caspase-1, pro-IL-1β, GAPDH, caspase-1 and IL-1β, followed by incubation with the appropriate secondary HRP-conjugated antibodies and development with ECL.

CMPK2 = target: T1, CMPK2 (Homo sapiens, UniProt Q5EBM0); assay: CMPK2 kinase activity assay (ADP-GLO); format: biochemical
T1 sequence (Q5EBM0 22-449): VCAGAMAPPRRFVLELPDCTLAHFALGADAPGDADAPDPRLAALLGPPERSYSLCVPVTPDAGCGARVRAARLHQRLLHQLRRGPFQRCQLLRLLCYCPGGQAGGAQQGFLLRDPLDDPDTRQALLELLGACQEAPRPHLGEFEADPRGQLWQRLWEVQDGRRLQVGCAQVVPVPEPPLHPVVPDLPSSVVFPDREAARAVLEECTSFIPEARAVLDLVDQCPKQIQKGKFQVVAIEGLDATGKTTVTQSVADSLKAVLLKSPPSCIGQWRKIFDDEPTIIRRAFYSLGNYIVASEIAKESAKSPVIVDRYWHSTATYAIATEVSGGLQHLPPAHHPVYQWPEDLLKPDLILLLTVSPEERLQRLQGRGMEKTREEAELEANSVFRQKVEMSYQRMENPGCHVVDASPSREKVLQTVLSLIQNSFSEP
Description: The range of concentrations used to investigate the effect of small‐molecule ligands on CMPK2 activity was 0.1–150 μM. Each data point contains three biological replicates.
CMPK2 activity was measured by the ADP‐GLO kinase assay according to the guidelines specified in the manufacturer's instructions. In the activity assay, the amount of ADP formed in the CMPK2 reaction was equal to the ATP consumption and proportional to the increase in luminescence generated in the luciferase reaction, which is the experimental principle shown in Figure 1I.

Compound: COc1c2ccc(-c3ccccc3)oc-2cc(=O)c1C [compound 73, Dracohodin perochlorate]
- mRNA expression level of Cmpk2 [1]: decreased
- protein expression of CMPK2 ([1]; DP 2.5, 5, 10 μM): dose‐dependently inhibited
- CMPK2 activity (CMPK2; 1 mM DP): completely inhibited
- IC50 (CMPK2; kinase activity assay, experimental triplicates, read-out: IC50 with respect to CMPK2): 1340 nM
- inhibition at 10 µM (CMPK2; read-out: CMPK2 inhibition): > 50%
